Tests used:
[1] = system: human BBB-on-a-chip (hBMEC, HBVP, NHA); assay: BBB-on-a-chip permeability, apical to basolateral (blood to brain channel), LC-MS/MS
Method: (§1) The design and construction of the BBB-on-a-chip were as reported previously. The chip (Emulate, #OCK-12) was composed of two parallel microchannels (top; 1 × 1 mm, bottom; 1 × 0.2 mm) separated by a porous polydimethysiloxane (PDMS) membrane (diameter, 7 μm; spacing, 40 μm; thickness, 50 μm, resulting in 2% porosity over a surface area of 0.171 cm^2 separating the two channels). The membrane was activated according to the manufacturer’s instructions and coated with the mixture of laminin (1 mg/mL), collagen IV (1 mg/mL), and fibronectin (1 mg/mL) in DPBS (Figure 1). Coated chips were incubated at 4 °C overnight, then at 37 °C for 1 h before seeding the cells. hBMEC cells (9 × 10^5 cells/mL) were 20 µL seeded into the bottom channel of the chip. The chip was immediately inverted and incubated at 37 °C for 4 h. After 4 h, hBMECs were prepared as previously described and re-injected into the bottom channel to mimic the vascular structure, as shown in right panel of Figure 2A.
(§2) Ten drugs (Table 1) were selected for BBB permeability analysis (CAF, CBZ, DES, LPM, CET, VIN, LP, NZD, DPZ, and SIM). […] We performed transport experiments for the basolateral-to-apical side and the apical-to-basolateral side.
(§3) Fifteen microliters of blood-and-brain medium was mixed with 135 μL internal standard (IS) solution (5 ng/mL disopyramide in acetonitrile). The mixture was vortexed briefly and centrifuged at 15,000 rpm for 5 min at 4 °C. […] Mobile phase A was 0.1% formic acid in water and mobile phase B was 0.1% formic acid in acetonitrile. Chromatographic separation was performed on a Luna C18 column (100 × 2 mm (i.d.) 3 μm, Phenomenex) with a Security Guard C18 guard column (4 mm × 20 mm (i.d.), Phenomenex) by gradient elution at a flow rate of 0.3 mL/min (Table 2). The mass spectrometer was operated in positive ion mode for all compounds, and the carryover was checked by the injection of a blank in between samples.
(§4) (1) Ctn,channel=Atn−1, channel+C(tn−tn−1),channel·tn−tn−1·channel flow rate/tn·channel flow rate, where Achannel is the drug amount of the channel; tn is time point; C(tn−tn−1),channel is the concentration of drug pooled from tn to tn−1; channel flow rate, fluid flow rate in channel;
(§5) (2) Cchannel=Css, channel · t/CT50, channel+t, where CT50, channel is the time at a half steady state concentration of channel; t, time.
(§6) Kp , the partition coefficient, in the BBB-on-a-chip was calculated by dividing the calculated Css, brain by the Css, blood value of the drug passing through the bottom channel, as shown in Equation (3). (3) Kp=Css, brain/Css, blood
(§7) J represents the rate at which the amount of compound moves from the bottom channel to the top channel, which was calculated by determining the slope of the time-versus-amount curve at 0 h to the point at which a steady state (90% of Tss ) was reached. Papp can be calculated by dividing J by the surface area of the membrane (SA) separating the two channels and the initial concentration in the bottom channel. (4) Papp=J/MW/SA·C0,blood ,J=dAbrain/dt, where MW is molecular weight of each drug.

[2] = as above; conditions: human
Method: as §1, §2, §3, §4, §5, §6, §7

[3] = system: human BBB-on-a-chip (hBMEC, HBVP, NHA); assay: BBB-on-a-chip permeability, basolateral to apical (brain to blood channel), LC-MS/MS; format: in vitro ADME; conditions: 1 μM in top channel
Text: Css, channel , the concentration in the channel at the steady state, was estimated using a simple Emax model Equation (2) with time (h) on the x-axis and concentration (ng/mL) on the y-axis.

[4] = 1 μM dosed, simple Emax model fit
[5] = 1 μM dosed, simple Emax model fit, sampling 1, 4, 9, 24 h
[6] = time to reach predicted 90% Css

SMILES | CT50,brain (time at half steady state concentration of brain channel) [1, 4] [h] | CT50,blood (time at half steady state concentration of blood channel) [1, 5] [h] | Cplateau,brain (concentration at plateau time of brain channel) ([1]; human) [ng/mL] | Css,blood (steady state concentration of blood channel) ([1]; human) [ng/mL] | Css,brain (steady state concentration of brain channel) ([1]; human) [ng/mL] | tplateau,brain (plateau time for brain channel) [1, 6] [h] | Papp at 24 h, 1 μM [2] [×10⁻⁶ cm/s] | Kp [2] | also measured
CCc1nn(CCCN2CCN(c3cccc(Cl)c3)CC2)c(=O)n1CCOc1ccccc1 [Nefazodone, nefazodone] | 37.79 | 9.01 | 13.8908 | 161.89 | 15.43 | 340.10 | 3.84 | – | Kp at 1 μM [2]: 0.0953
CNCCCN1c2ccccc2CCc2ccccc21 [Desipramine, desipramine] | 34.47 | 57.44 | – | – | – | 310.22 | 32.5 | – | Css,blood (steady state concentration of blood channel) [1, 4]: 234.83 ng/mL; Css,brain (steady state concentration of brain channel) [1, 4]: 73.93 ng/mL; Cplateau,brain (concentration at plateau time of brain channel) ([1]; predicted 90% Css): 66.5383 ng/mL
Cn1c(=O)c2c(ncn2C)n(C)c1=O [Caffeine, caffeine] | – | – | 44.8098 | 114.47 | 49.79 | – | – | 0.435 | Plateau reached in brain channel during the observed time [1]: reached plateau; CT50,blood (time at half steady state concentration of blood channel) ([1]; human): 2.91 h; CT50,brain (time at half steady state concentration of brain channel) ([1]; human): 2.39 h; tplateau,brain (plateau time for brain channel) ([1]; human): 21.52 h; Papp [2]: 30 ×10⁻⁶ cm/s
CC[C@]1(O)C[C@H]2CN(CCc3c([nH]c4ccccc34)[C@@](C(=O)OC)(c3cc4c(cc3OC)N(C=O)[C@H]3[C@@](O)(C(=O)OC)[C@H](OC(C)=O)[C@]5(CC)C=CCN6CC[C@]43[C@@H]65)C2)C1 [Vincristine, vincristine] | – | 2.99 | – | 626.20 | – | – | – | 0.0821 | Plateau reached in brain channel during the observed time ([1]; observation up to 24 h): reached plateau
NC(=O)N1c2ccccc2C=Cc2ccccc21 [Carbamazepine, carbamazepine] | 3.27 | 1.98 | 28.6749 | 112.88 | 31.86 | 29.41 | 15.8 | – | BBB permeability in words (apical to basolateral) ([1]; BBB-on-a-chip, 1 μM): high permeabilities; Kp at 1 μM [2]: 0.282
Nc1nc(OC(c2ccc(-c3cccc(F)c3)cc2)C(F)(F)F)cc(-c2ccc(C[C@H](N)C(=O)O)cc2)n1 (some centres unmarked) [LP533401] | 0.16 | 6.80 | – | – | – | 1.42 | – | – | BBB permeability in words (apical to basolateral) [1]: low permeability; Papp (apparent permeability) [1]: 2.1693 10^−6cm/s; Css,blood (steady state concentration of blood channel) [1, 4]: 573.66 ng/mL; Css,brain (steady state concentration of brain channel) [1, 4]: 9.77 ng/mL; Kp (Brain/Blood), partition coefficient ([1]; human): 0.0170; Plateau reached in brain channel during the observed time ([1]; observation up to 24 h): reached plateau; Cplateau,brain (concentration at plateau time of brain channel) ([1]; predicted 90% Css): 8.7886 ng/mL
CN(C)C(=O)C(CCN1CCC(O)(c2ccc(Cl)cc2)CC1)(c1ccccc1)c1ccccc1 [Loperamide, loperamide] | 20.04 | 58.46 | 33.9736 | 684.09 | 37.75 | – | – | 0.0552 | tplateau,brain (plateau time for brain channel) ([1]; human): 180.32 h; Papp [2]: 9.26 ×10⁻⁶ cm/s; BBB permeability in words (basolateral to apical) [3]: high permeability

— publication PMC11125197, “Evaluation of Drug Blood-Brain-Barrier Permeability Using a Microfluidic Chip” (Pharmaceutics, 2024)
